Data: patent US20130184272A1, “DIABETES THERAPEUTIC AGENT” (TAKEDA PHARMACEUTICAL COMPANY LIMITED, priority 2010, published 2013)

Assays:
[1] = system: phosphorylated acetyl-CoA carboxylase (ACC); test: Phosphorylated acetyl-CoA carboxylase (ACC) amount in muscle cell; assay type: cell-based, Mouse; settings: for Phospho-ACC amount (%): 3 days, amended with total ACC, no compound = 100%
Experimental: • (1) In the same manner as in Example 1, C2C12 cells were cultured in a growth medium. After reaching subconfluence of not less than 90%, the medium was exchanged with a differentiation medium and the cells were cultured for about 4 days while exchanging the medium every 2 or 3 days until the cells differentiated to form a myotube. • (2) After confirmation of myotube formation under a microscope, the test compound (0.1-10 nM) was added to a differentiation medium and cultured for 3 days. Thereafter, the cells were fixed with 4% formaldehyde phosphate buffer for 10 min, and washed 4 times with PBS containing 0.1% TritonX-100. • (3) Odyssey Blocking Buffer (LI-COR Biosciences) was added, and the mixture was incubated at room temperature for 1 hr. Thereafter, primary antibody (ACCα (T-18) (Santacruz) and Phospho-ACC (Ser79) (Upstate)) were added, and the mixture was incubated at 4° C. overnight. • (4) The cells were washed 4 times with PBS containing 0.1% Tween20, secondary antibody (Donkey anti-goat IRDye 800CW (LI-COR Biosciences) and Donkey anti-mouse IRDye 680 (LI-COR Biosciences)) were added and the mixture was incubated under shading at room temperature for 1 hr. • (5) The cells were washed 4 times with PBS containing 0.1% Tween20, PBS was added, and the phospho-ACC amount and total ACC amount were measured using Odyssey2.1 (LI-COR Biosciences).
The numerical values in Table 20 were obtained by amending the phospho-ACC amount with total ACC amount and are shown based on the absence of addition of the compound as 100%. n is the number of samples.

[2] = system: C2C12 cells; test: Sugar uptake promoting activity in muscle cell (2DG uptake); assay type: cell-based, Mouse; settings: for 2DG uptake (%): control group (DMSO) = 100%
Experimental: • (1) In the same manner as in Example 1, C2C12 cells were cultured in a growth medium to not less than 90% confluence. • (2) The medium was exchanged with a differentiation medium, and the cells were cultured until observation of myotube formation under a microscope. • (3) The compounds of Reference Example 1 and Reference Example 7 were added, and the cells were cultured overnight. • (4) The cells were washed with krebs-ringer HEPES phosphate buffer added with 1% bovine serum albumin, cultured for 30 min in this buffer, 2-deoxyglucose (2DG) (0.1 mM, 0.8 μCi/250 μL) was added and the cells were cultured at 37° C. for 75 min. • (5) The cells were washed 4 times with PBS, MicroScint-20 (125 μL/well, PerkinElmer) was added and the radioactivity was measured by a scintillation counter. DMSO (dimethyl sulfoxide) alone was added to the control group. The numerical values of 2DG uptake in Table 10 are relative values to the control group as 100%.
The data in Table 10 show mean±standard deviation at n=6 (n is the number of samples).

[3] = system: C2C12 cells; test: ATP content in muscle cell; assay type: cell-based, Mouse; settings: for ATP content: two days, control group 100
Experimental: • (1) In the same manner as in Example 1, C2C12 cells were cultured in a growth medium to not less than 90% confluence. • (2) The medium was exchanged with a differentiation medium, and the cells were cultured until observation of myotube formation under a microscope. • (3) The compounds of Reference Example 1 and Reference Example 7 were added, and the cells were cultured for two days. • (4) ATP content was measured using Cell Titer-Glo™ Luminescence cell viable assay (Promega) and succinic acid dehydrogenase activity of mitochondria was measured using Cell Counting Kit-8 (Dojin). The data of Table 17 show mean±standard deviation at n=3-4 (n is the number of samples).

[4] = system: C2C12 cell; test: Sugar metabolism promoting activity in muscle cell (lactic acid production); assay type: cell-based, Mouse; settings: Mus musculus, 48 h; compound 1 μM, 2 days, C2C12 myotubes; without drug = 100%; read-out: lactic acid production promoting action (%)
Experimental: • (1) In the same manner as in Example 1, C2C12 cell was cultured in a growth medium. After reaching subconfluence of not less than 90%, the medium was exchanged with a differentiation medium and the cells were cultured for about 7 days while exchanging the medium every 2 or 3 days until the cells differentiated to form a myotube. • (2) After confirmation of myotube formation under a microscope, the test compound (1 μM) was added to a differentiation medium and cultured for 2 days. The cells were washed with Krebs-Ringer HEPES phosphate buffer (10 mM HEPES, pH 7.4, 131 mM NaCl, 4.7 mM KCl, 2.5 mM CaCl2—2H2O, 1.2 mM MgSO4—7H2O, 1.2 mM KH2PO4), the medium was exchanged with Krebs-Ringer HEPES phosphate buffer added with 5 mM glucose, 0.2% fatty acid-free bovine serum albumin, and cultured at 37° C. for 4 hr. • (3) The lactic acid concentration of the culture supernatant was measured using Detarminer LA kit (Kyowa Medex Co., Ltd.).
The numerical values in Table 2 show the concentration of the compound addition group with the concentration of lactic acid without addition of a drug as 100%.

[5] = system: C/EBPβ; test: Adipocyte-related gene expression level: C/EBPβ; assay type: cell-based
Experimental: In the same manner as in Example 10, the cells were cultured, and total RNA was extracted using Rneasy96 kit (Qiagen) from the cell immediately before and 6 days after addition of […] of the compound of Reference Example 1. cDNA was prepared from the total RNA using TaqMan reverse transcription reagent (Applied Biosystems), quantitative PCR was performed by ABI PRISM7000 or 7000 using TaqMan Universal PCR master mix (Applied Biosystems) and commercially available primers, and the expression level of each gene was determined. The commercially available primers used were as follows. • C/EBPα (Mm00514283_s1, TaqMan Gene Expression Assays, Applied Biosystems) • C/EBPβ (Mm00843434_s1, TaqMan Gene Expression Assays, Applied Biosystems) • KLF15 (Mm00517792_m1, TaqMan Gene Expression Assays, Applied Biosystems) • PPARγ (Mm00440945_m1, TaqMan Gene Expression Assays, Applied Biosystems)
The expression level was amended by the amount of 36B4 (Takeda Pharmaceutical Company Limited) in the same manner as in Example 3, and the relative values to the value immediately before addition of each gene compound as 1 are shown in Table 16. The data in Table 16 show mean±standard deviation at n=3-4 (n is the number of samples).

Cc1ncccc1Oc1sc(C(N)=O)c2c1-c1c(cnn1C)CC2 [Ref. Ex. 1, 1-methyl-8-[(2-methylpyridin-3-yl)oxy]-4,5-dihydro-1H-thieno[3,4-g]indazole-6-carboxamide]
Phospho-ACC amount (%) ([1]; compound 0.1 nM): 112% | Phospho-ACC amount (%) ([1]; compound 0.3 nM): 125% | Phospho-ACC amount (%) ([1]; compound 1 nM): 136% | Phospho-ACC amount (%) ([1]; compound 3 nM): 167% | Phospho-ACC amount (%) ([1]; compound 10 nM): 163% | phospho-ACC amount (in words) ([1]; differentiated C2C12 muscle cell): increased | sugar uptake of C2C12 cell differentiated into muscle cell (in words) [2]: promoted | 2DG uptake (%) ([2]; compound 0.1 nM overnight): 89% | 2DG uptake (%) ([2]; compound 1 nM overnight): 150% | 2DG uptake (%) ([2]; compound 10 nM overnight): 166% | 2DG uptake (%) ([2]; compound 100 nM overnight): 187% | ATP content of muscle cells (in words) [3]: did not decrease | ATP content ([3]; compound 0.01 nM): 108 ± 1 | ATP content ([3]; compound 0.1 nM): 107 ± 0 | ATP content ([3]; compound 1 nM): 112 ± 1 | activity at 1 µM [4]: 247% | C/EBPβ expression level (amended by 36B4) ([5]; 10 μm [sic] of compound, 6 days after addition, value immediately before addition = 1): 1.3 ± 0.5 | expression level of C/EBPβ (in words) ([5]; C3H10T1/2 cell): decreased

Cn1ncc2c1-c1c(Oc3cccnc3)sc(C(N)=O)c1CC2 [Ref. Ex. 7, 1-methyl-8-(pyridin-3-yloxy)-4,5-dihydro-1H-thieno[3,4-g]indazole-6-carboxamide]
sugar uptake of C2C12 cell differentiated into muscle cell (in words) [2]: promoted | 2DG uptake (%) ([2]; compound 0.1 nM overnight): 69% | 2DG uptake (%) ([2]; compound 1 nM overnight): 100% | 2DG uptake (%) ([2]; compound 10 nM overnight): 137% | 2DG uptake (%) ([2]; compound 100 nM overnight): 181% | ATP content of muscle cells (in words) [3]: did not decrease | ATP content ([3]; compound 1 nM): 106 ± 2 | ATP content ([3]; compound 10 nM): 111 ± 3 | ATP content ([3]; compound 100 nM): 103 ± 4 | activity at 1 µM [4]: 254%
